The target in experiment [1] is Melanin-concentrating hormone receptor 1 (Homo sapiens, UniProt Q99705). The experiment can be described thus: Late-stage fluorescence-based counterscreen for antagonists of the G-protein coupled receptor 7 (GPR7): cell-based dose response assay to identify antagonists of the melanin-concentrating hormone receptor 1 (MCHR1). [Related pubchem assays (depositor defined):AID1861, AID1880, AID1952, AID2148, AID2251, AID2257, AID485339]. In kind it is functional. Background: Counterscreens check selectivity or assay interference.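 Further: stimulated with 30 nM MCH peptide agonist.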
Melanin-concentrating hormone receptor 1, sequence (Q99705 whole entry): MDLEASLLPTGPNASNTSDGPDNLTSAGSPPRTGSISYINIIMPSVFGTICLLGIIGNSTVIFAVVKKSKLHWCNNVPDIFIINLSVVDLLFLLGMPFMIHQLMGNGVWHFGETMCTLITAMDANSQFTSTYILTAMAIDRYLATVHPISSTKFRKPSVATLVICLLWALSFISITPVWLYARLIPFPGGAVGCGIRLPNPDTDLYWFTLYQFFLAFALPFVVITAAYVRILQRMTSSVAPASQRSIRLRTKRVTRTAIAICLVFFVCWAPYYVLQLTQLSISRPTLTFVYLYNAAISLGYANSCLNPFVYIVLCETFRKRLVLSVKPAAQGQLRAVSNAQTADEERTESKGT

The next experiment concerns HEK293. The experiment can be described thus: Fluorescence-based counterscreen for potentiators or agonists of NPY-Y2: cell-based high-throughput dose response assay to identify inhibitors of cyclic nucleotide gated ion channel (CNGC) activity. In this assay, the parental HEK293 cell line transfected with a cyclic-nucleotide gated ion channel (CNGC)-based cAMP sensor is used to measure inhibition of isoproterenol-induced CNGC activity by test compound. The class given is functional. The note with it: Homo sapiens.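 Further: stimulus is 1 µM isoproterenol at EC100 plus PDE inhibitor Ro 20-1724 at 25 µM.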

The target of experiment [2] is T1, Neuropeptide Y receptor type 2 (Homo sapiens, UniProt P49146).
T1 sequence (P49146 whole entry): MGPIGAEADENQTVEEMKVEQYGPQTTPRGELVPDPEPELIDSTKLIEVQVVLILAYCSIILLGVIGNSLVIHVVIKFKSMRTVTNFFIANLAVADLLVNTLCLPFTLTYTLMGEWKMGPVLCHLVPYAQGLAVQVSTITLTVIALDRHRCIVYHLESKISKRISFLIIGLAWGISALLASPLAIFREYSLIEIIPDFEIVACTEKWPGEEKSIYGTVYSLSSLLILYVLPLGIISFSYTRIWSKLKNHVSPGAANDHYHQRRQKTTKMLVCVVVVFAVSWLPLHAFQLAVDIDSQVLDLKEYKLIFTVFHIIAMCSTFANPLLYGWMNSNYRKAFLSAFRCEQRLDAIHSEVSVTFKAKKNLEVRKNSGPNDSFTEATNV
The experiment can be described thus: Fluorescence-based cell-based high-throughput dose response assay for agonists of NPY-Y2. [Related pubchem assays: 1703 (Screening assay (CNGC inhibitors).), 1359 (Screening assay (NPY-Y2 potentiators or agonists).), 1304 (Screening assay (NPY-Y1 potentiators or agonists).), 1710 (Screening assay (NPY-Y2 agonists).), 1791 (Summary AID.)]. In kind it is functional.

Experiment [3] deals with T2, Neuropeptide Y receptor type 1 (Homo sapiens, UniProt P25929).
T2 sequence (P25929 whole entry): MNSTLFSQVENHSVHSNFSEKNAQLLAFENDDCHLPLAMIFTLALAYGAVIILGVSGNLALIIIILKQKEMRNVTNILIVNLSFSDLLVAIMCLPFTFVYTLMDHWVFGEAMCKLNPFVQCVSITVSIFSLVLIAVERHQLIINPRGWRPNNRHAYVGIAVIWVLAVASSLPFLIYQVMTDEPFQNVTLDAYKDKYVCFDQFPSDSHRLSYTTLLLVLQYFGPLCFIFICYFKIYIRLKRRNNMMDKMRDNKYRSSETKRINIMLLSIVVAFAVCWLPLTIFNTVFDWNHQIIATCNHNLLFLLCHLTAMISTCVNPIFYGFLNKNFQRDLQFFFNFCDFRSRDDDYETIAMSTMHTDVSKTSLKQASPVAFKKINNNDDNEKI
The experiment is described as follows: Fluorescence-based counterscreen for agonists of NPY-Y2: cell-based high-throughput dose response assay for agonists of NPY-Y1. The class given is functional.

A further experiment has as its target Cytochrome P450 3A4 (Homo sapiens, UniProt P08684). The note with it: Potency.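 Further: confirmatory qHTS run detecting inhibitors and substrates of CYP3A4.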
The target in experiment [4] is Acyl-homoserine lactone acylase PvdQ (Pseudomonas aeruginosa (strain LESB58), UniProt Q9I194). The experiment is described as follows: P. aeruginosa PvdQ acylase inhibitors, dose response, biochemical, fluorescence, plate reader and imaging, cherry-picks (AID 493231).
Acyl-homoserine lactone acylase PvdQ, sequence (Q9I194 24-193 limits assumed): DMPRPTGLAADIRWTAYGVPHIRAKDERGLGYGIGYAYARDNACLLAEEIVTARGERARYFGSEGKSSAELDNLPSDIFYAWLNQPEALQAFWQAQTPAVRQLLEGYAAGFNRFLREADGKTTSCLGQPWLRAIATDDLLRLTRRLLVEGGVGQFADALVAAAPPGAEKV
Acyl-homoserine lactone acylase PvdQ, sequence (Q9I194 217-762 limits assumed): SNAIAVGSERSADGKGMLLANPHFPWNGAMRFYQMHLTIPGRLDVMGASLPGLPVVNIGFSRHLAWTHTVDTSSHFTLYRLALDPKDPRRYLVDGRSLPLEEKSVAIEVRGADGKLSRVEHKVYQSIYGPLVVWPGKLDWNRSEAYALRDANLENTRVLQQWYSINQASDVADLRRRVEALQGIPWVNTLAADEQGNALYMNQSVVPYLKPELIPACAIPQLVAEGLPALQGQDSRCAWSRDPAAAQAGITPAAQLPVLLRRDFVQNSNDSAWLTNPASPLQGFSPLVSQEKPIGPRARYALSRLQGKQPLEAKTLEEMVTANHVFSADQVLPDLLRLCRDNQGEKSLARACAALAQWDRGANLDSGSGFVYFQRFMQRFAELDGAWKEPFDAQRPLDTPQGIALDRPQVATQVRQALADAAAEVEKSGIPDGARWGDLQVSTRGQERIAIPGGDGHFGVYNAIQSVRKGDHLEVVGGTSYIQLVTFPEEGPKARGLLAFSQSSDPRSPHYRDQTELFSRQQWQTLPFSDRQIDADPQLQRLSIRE
A further experiment addresses Bcl-2-like protein 10 (Homo sapiens, UniProt Q9HD36). The experiment is described as follows: displacers of TR3 peptide from Bcl-B, primary screen, selectivity assay for Bfl-1 inhibitor project, biochemical, fluorescence polarization, FITC-TR3 peptide (AID 748). On the technique in general: Fluorescence polarisation rises when a labelled molecule tumbles more slowly, as on binding a larger partner.

In experiment [5] the target is Lysosomal acid glucosylceramidase (Homo sapiens, UniProt P04062). The experiment is described as follows: Dose response cell-based high throughput screening assay to identify enhancers of beta-glucosidase activity. [Related pubchem assays: 784 ]. In kind it is functional.
Lysosomal acid glucosylceramidase, sequence (P04062 whole entry): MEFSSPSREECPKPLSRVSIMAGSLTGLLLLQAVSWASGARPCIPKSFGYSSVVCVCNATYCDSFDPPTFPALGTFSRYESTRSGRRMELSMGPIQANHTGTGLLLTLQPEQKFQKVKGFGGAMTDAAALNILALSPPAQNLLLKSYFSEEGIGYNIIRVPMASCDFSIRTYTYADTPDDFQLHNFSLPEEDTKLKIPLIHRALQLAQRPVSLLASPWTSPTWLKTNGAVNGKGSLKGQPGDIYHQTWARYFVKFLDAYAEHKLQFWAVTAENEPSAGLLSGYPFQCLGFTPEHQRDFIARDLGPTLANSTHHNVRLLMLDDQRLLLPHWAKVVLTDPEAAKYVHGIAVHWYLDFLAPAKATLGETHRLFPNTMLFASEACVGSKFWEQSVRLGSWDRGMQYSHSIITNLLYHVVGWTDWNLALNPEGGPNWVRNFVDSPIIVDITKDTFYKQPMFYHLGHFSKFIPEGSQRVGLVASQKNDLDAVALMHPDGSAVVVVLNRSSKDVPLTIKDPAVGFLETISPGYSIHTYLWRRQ
The next experiment is described as follows: cells. In kind it is functional.
Experiment [6] addresses T3, Eukaryotic translation initiation factor 2-alpha kinase 3 (Homo sapiens, UniProt Q9NZJ5).
T3 sequence (Q9NZJ5 whole entry): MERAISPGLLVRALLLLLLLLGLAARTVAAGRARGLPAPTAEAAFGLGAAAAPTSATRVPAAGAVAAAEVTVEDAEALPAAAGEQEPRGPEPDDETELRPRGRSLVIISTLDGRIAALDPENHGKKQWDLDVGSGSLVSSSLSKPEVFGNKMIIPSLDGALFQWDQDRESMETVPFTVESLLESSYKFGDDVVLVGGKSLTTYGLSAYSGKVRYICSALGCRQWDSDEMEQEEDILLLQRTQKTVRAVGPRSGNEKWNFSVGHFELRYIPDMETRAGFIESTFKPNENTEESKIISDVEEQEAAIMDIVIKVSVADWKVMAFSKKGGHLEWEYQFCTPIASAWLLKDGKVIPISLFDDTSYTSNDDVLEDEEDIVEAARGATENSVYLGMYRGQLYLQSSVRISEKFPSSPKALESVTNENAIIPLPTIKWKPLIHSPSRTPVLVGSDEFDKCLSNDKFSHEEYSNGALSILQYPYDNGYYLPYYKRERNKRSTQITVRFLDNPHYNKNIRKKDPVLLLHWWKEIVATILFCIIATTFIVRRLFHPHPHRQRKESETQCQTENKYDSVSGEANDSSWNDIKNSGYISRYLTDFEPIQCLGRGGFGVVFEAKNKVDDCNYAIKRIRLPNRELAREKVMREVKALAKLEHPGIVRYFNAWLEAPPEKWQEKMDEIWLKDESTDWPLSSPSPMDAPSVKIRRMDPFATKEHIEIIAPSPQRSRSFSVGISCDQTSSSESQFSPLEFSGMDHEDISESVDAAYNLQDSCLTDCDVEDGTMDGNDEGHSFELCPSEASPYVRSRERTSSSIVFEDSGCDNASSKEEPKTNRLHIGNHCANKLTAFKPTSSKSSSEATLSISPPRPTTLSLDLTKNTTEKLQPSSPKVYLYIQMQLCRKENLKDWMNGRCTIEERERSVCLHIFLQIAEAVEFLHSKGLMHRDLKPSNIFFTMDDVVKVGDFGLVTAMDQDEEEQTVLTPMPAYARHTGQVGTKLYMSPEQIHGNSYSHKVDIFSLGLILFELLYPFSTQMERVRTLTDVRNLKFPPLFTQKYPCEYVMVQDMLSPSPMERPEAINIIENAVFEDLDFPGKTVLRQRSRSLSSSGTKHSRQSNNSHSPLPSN
The experiment can be described thus: Dose response cell-based high-throughput screening assay to measure PERK inhibition. [Related pubchem assays: 1416 ]. In kind it is functional.

Experiment [7] concerns the target T3, Eukaryotic translation initiation factor 2-alpha kinase 3. The experiment is described as follows: Counterscreen assay for PERK inhibitors: Dose response cell-based high throughput screening assay to measure inhibition of PERK at 6 hours. [Related pubchem assays: 1522, 1416 ]. In kind it is functional.

Each structure is given as a SMILES string. The source made the active and inactive calls. Bounds are passed on as bounds.

As a reminder, the IC50 is the point on the concentration scale where inhibition reaches its midpoint. What is called EC50 is the midpoint of the concentration-response curve. A word on the AC50: it is the concentration giving half of the maximal activity seen.

Cytochrome P450 3A4, sequence (P08684 whole entry): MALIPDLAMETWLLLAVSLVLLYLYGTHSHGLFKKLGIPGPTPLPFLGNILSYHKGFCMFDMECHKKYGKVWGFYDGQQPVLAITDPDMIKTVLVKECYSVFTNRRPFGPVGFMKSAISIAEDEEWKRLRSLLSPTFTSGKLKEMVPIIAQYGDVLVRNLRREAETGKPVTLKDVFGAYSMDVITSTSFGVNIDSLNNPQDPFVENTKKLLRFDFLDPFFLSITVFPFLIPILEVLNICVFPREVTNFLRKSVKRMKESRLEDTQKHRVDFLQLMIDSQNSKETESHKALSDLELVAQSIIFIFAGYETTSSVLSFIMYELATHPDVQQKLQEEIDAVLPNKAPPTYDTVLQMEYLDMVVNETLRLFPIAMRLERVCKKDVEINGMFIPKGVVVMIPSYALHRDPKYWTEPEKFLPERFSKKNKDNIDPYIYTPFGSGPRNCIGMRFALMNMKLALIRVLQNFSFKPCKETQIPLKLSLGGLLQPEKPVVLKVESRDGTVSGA
Bcl-2-like protein 10, sequence (Q9HD36 whole entry): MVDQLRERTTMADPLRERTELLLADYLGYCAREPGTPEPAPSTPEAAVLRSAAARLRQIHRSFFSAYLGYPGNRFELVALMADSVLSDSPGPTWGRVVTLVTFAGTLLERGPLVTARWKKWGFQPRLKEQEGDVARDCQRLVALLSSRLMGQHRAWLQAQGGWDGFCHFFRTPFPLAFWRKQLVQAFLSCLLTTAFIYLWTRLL

With `COc1ccc(Oc2c(Cl)cnn(-c3ccc(C)cc3)c2=O)cc1OC`, in experiment [1], the half-inhibitory concentration (IC50) was 8.2 µM (active). As to `Cc1ccccc1OCC(O)CN1CCC(C)CC1` (stereo not drawn), the EC50 with HEK293 was 4.67 µM (active); in experiment [2], 33.3 µM (not active); in experiment [3], 21.8 µM (not active). As to `COc1ccc(Oc2c(Cl)cnn(-c3cccc(C(C)C)c3)c2=O)cc1`, the IC50 in [1] is 1.7 µM (active). As for `COC(=O)[C@@H]1C[C@@]2(O)[C@H](O)[C@H](O)[C@H](O)C[C@H]2N1Cc1cc(OC)cc(OC)c1`, the AC50 on Cytochrome P450 3A4 is 15.8 µM (inconclusive).

Take `O=C(OCc1nc2ccccc2s1)c1ccco1`: the concentration at half-maximal activity (AC50) in experiment [4] is 30.3 µM (active). As for `CN(Cc1ccccc1)C(=O)CCNC(=O)Cn1cnc2ccccc2c1=O`, the EC50 (with HEK293; in [2]; in experiment [3]) was > 35.4 µM (not active) in each case. In the case of `Cc1csc2nc(CNS(=O)(=O)N(C)C)cn12`, the IC50 at Bcl-2-like protein 10 was > 100 µM (inactive). `CCOC(=O)c1c(C)n(C)c2ccc(OC(C)C(=O)OC)cc12` (stereo not drawn): the EC50 in experiment [5] is reported as > 10 µM (not active). Moreover, in the experiment “cells”, the IC50 is 20.9 µM (active). With `CCC(C(=O)O)C1CCC(C)C(C(C)C(O)C(C)C(=O)C(CC)C2OC3(C=CC(O)[C@@]4(CC[C@](C)(C5CC[C@@](O)(CC)C(C)O5)O4)O3)C(C)CC2C)O1` (stereo partly drawn), the AC50 on Cytochrome P450 3A4 was 39.8 µM (inconclusive).

In the case of `Cc1cnc(O)c([N+](=O)[O-])c1`, the EC50 in experiment [6] and in experiment [7] was > 55.7 µM (not active) each time. As for `O=C(NC1CCCC1)c1cccc(Cl)c1`, in experiment [4], the AC50 was 3.13 µM (active). Consider `COCc1nnc(NC(=O)c2ccc(S(=O)(=O)N(C)C3CCCCC3)cc2)o1`, for which the EC50 in experiment [5] is recorded as > 10 µM (not active).
